From patent US11691984B2, “Compounds and methods for DCAF-mediated protein degradation” (The Scripps Research Institute, priority 2018, dated 2023)

What was measured:
ACAT1 = target: T1, ACAT1 (Homo sapiens, UniProt P24752); assay: Proteome-wide SILAC MS protein abundance in HEK293T cells: ACAT1; assay type: cell-based; settings: 24 hours
T1 construct: endogenous in cells; host or cells: HEK293T
T1 sequence (P24752 34-427): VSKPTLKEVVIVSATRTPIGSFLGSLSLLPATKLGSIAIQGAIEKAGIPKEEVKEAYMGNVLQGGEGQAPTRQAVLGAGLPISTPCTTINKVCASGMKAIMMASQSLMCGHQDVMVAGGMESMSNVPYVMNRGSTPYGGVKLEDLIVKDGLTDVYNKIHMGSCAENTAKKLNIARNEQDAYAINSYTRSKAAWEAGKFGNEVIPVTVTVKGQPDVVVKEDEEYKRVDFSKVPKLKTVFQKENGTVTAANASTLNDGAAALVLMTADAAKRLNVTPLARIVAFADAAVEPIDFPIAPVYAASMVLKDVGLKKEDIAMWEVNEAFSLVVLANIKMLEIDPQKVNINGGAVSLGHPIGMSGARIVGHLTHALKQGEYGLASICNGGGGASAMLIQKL
Experimental: (§1) HEK293T light and heavy SILAC cells were treated with DMSO and KB02-JQ1 (20 μM) or KB02-SLF (2 μM) for 24 hours, respectively. Light and heavy cells were collected and lysed in 1% NP-40 lysis buffer with complete protease inhibitor cocktail. Cells were vortexed and sonicated for 5 pulses (40%, 4). The supernatant was collected after centrifugation at 16,000 g for 10 min at 4° C. Protein concentration was determined by DC assay. 50 μg proteome from light and heavy samples were mixed, followed by methanol/chloroform precipitation. […] Next, the ratio of the peak areas under the light and heavy signals (signal-to-noise ratio>2.5) was calculated. […] In addition, peptides detected as ‘singletons,’ where only the heavy ion of a peptide pair was identified, but that cleared all other filtering parameters, were given a default assigned ratio of ‘20,’ which is defined as any measured ratio that is ≥20 and is the maximum ratio reported here.” The median SILAC ratios from quantified peptides were used as measures of protein abundance. The following quality filters were further applied to generate the plot: (1) proteins must have at least two quantified peptides; (2) proteins must be present in both replicates; (3) for each protein, the standard deviation of measured ratios of peptides must be <1.0.

BRD4 = target: T2, BRD4 (Homo sapiens, UniProt O60885); assay: Proteome-wide SILAC MS protein abundance in HEK293T cells: BRD4; assay type: cell-based; settings: 24 hours
T2 construct: degradation of endogenous BRD4 in HEK293T cells; endogenous in cells; host or cells: HEK293T (A10, A16); HEK293 DCAF16+/+ and DCAF16-/- clones (A11)
Experimental: as §1

In the case of `CCC(C)(C)C(=O)C(=O)N1CCCC[C@H]1C(=O)O[C@H](CCc1ccc(OC)c(OC)c1)c1cccc(NC(=O)CCOCCOCCNC(=O)COc2ccc3c(c2)CCCN3C(=O)CCl)c1` [KB02-SLF, (R)-1-(3-(3-(2-(2-(2-((1-(2-chloroacetyl)-1,2,3,4-tetrahydroquinolin-6-yl)oxy)acetamido)ethoxy)ethoxy)propanamido)phenyl)-3-(3,4-dimethoxyphenyl)propyl (S)-1-(3,3-dimethyl-2-oxopentanoyl)piperidine-2-carboxylate], the “ACAT1 abundance (MS-based proteomics)” value (ACAT1; KB02-SLF 2 μM) is reported as “reductions in ACAT1” and the “BRD4 abundance (MS-based proteomics)” value (BRD4; KB02-SLF 2 μM) is reported as “not BRD4”.

With `Cc1sc2c(c1C)C(c1ccc(Cl)cc1)=N[C@@H](CC(=O)NCCOCCOCCNC(=O)COc1ccc3c(c1)CCCN3C(=O)CCl)c1nnc(C)n1-2` [KB02-JQ1, (S)-2-((1-(2-chloroacetyl)-1,2,3,4-tetrahydroquinolin-6-yl)oxy)-N-(2-(2-(2-(2-(4-(4-chlorophenyl)-2,3,9-trimethyl-6H-thieno[3,2-f][1,2,4]triazolo[4,3-a][1,4]diazepin-6-yl)acetamido)ethoxy)ethoxy)ethyl)acetamide] the “ACAT1 abundance (MS-based proteomics)” value (ACAT1; KB02-JQ1 20 μM) was “substantially decreased abundance” and the “BRD4 abundance (MS-based proteomics)” value (BRD4; KB02-JQ1 20 μM) was “selective degradation of BRD4”.
